Data: PubChem BioAssay (NCI)
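1) Cells in 96-well plates. 2) Compound, 48 h, 5 concentrations. 3) Linear interpolation between surrounding doses. 4) Unreached endpoint = highest concentration. At the TGI there is no net growth.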

Legend:
Experiment in all cases: DTP human tumour cell line panel, 48 h
NCI/ADR-RES ovarian = system: NCI/ADR-RES ovarian
SF-268 CNS = system: SF-268 CNS
COLO 205 colon = system: COLO 205 colon
SN12C renal = system: SN12C renal
DU-145 prostate = system: DU-145 prostate
M14 melanoma = system: M14 melanoma
SK-MEL-2 melanoma = system: SK-MEL-2 melanoma
T-47D breast = system: T-47D breast
NCI-H23 lung = system: NCI-H23 lung
A498 renal = system: A498 renal
HCT-15 colon = system: HCT-15 colon
786-0 renal = system: 786-0 renal
SK-MEL-5 melanoma = system: SK-MEL-5 melanoma
RPMI-8226 leukemia = system: RPMI-8226 leukemia
OVCAR-8 ovarian = system: OVCAR-8 ovarian
SK-MEL-28 melanoma = system: SK-MEL-28 melanoma
U251 CNS = system: U251 CNS
A549 NSCLC = system: A549 NSCLC
MALME-3M melanoma = system: MALME-3M melanoma
MDA-MB-231 breast = system: MDA-MB-231 breast
KM12 colon = system: KM12 colon
UACC-257 melanoma = system: UACC-257 melanoma
SF-539 CNS = system: SF-539 CNS
SR leukemia = system: SR leukemia
NCI-H522 lung = system: NCI-H522 lung
RXF 393 renal = system: RXF 393 renal
PC-3 prostate = system: PC-3 prostate
CAKI-1 renal = system: CAKI-1 renal
IGROV1 ovarian = system: IGROV1 ovarian
MDA-N = system: MDA-N
NCI-H226 lung = system: NCI-H226 lung
HOP-62 NSCLC = system: HOP-62 NSCLC
MDA-MB-435 = system: MDA-MB-435
OVCAR-5 ovarian = system: OVCAR-5 ovarian
NCI-H460 lung = system: NCI-H460 lung
SNB-75 CNS = system: SNB-75 CNS
TK-10 renal = system: TK-10 renal
SF-295 CNS = system: SF-295 CNS
HOP-92 NSCLC = system: HOP-92 NSCLC
SW-620 colon = system: SW-620 colon
UACC-62 melanoma = system: UACC-62 melanoma
HCC-2998 colon = system: HCC-2998 colon
HT29 colon = system: HT29 colon
ACHN renal = system: ACHN renal
MOLT-4 leukemia = system: MOLT-4 leukemia
HS 578T breast = system: HS 578T breast
HCT-116 colon = system: HCT-116 colon
K-562 leukemia = system: K-562 leukemia
SK-OV-3 ovarian = system: SK-OV-3 ovarian
MCF7 breast = system: MCF7 breast
CCRF-CEM leukemia = system: CCRF-CEM leukemia
BT-549 breast = system: BT-549 breast
UO-31 renal = system: UO-31 renal
OVCAR-4 ovarian = system: OVCAR-4 ovarian
OVCAR-3 ovarian = system: OVCAR-3 ovarian
HL-60(TB) leukemia = system: HL-60(TB) leukemia
SNB-19 CNS = system: SNB-19 CNS
LOX IMVI melanoma = system: LOX IMVI melanoma

Measured: TGI

O=C1CC(=O)NC(=NN2C(=O)CSC2c2ccccc2)N1 (stereo not drawn)
not listed: HL-60(TB) leukemia | SNB-19 CNS | LOX IMVI melanoma
> 100 µM: all other assays above

CN(C)CCCNC(=O)N/N=C/c1ccc([N+](=O)[O-])cc1
not listed: RPMI-8226 leukemia | RXF 393 renal | HOP-92 NSCLC | OVCAR-4 ovarian | LOX IMVI melanoma
> 100 µM: all other assays above

CC(=O)OC1CC2(C)C(OC(C)=O)CC1C2(C)C (stereo not drawn)
not listed: SK-MEL-2 melanoma | A498 renal | CAKI-1 renal
> 100 µM: all other assays above
